Measured values published in ChEMBL document CHEMBL1201862, “PubChem BioAssay data set” (2004).
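Where inhibition never reached the appropriate level, the endpoint shown equals the highest concentration tested. Otherwise, values were interpolated linearly from a five-concentration, 48-hour dose response in 96-well plates. Abbreviation: GI50, concentration required for 50% inhibition of growth.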 Activity calls are given as the source filed them. No stated cut-off is given here; in the data, active = GI50 up to about 1.1 µM and inactive = higher.

Key:
Experiment in all cases: inhibition of tumour cell growth, NCI panel, 48 h
HCC 2998 = tested on: HCC 2998
T47D = tested on: T47D
ACHN = tested on: ACHN
EKVX = tested on: EKVX
HOP-62 = tested on: HOP-62
UO-31 = tested on: UO-31
SF-268 = tested on: SF-268
MOLT-4 = tested on: MOLT-4
MDA-MB-435 = tested on: MDA-MB-435
A498 = tested on: A498
NCI-H23 = tested on: NCI-H23
786-0 = tested on: 786-0
NCI/ADR-RES = tested on: NCI/ADR-RES
COLO 205 = tested on: COLO 205
OVCAR-3 = tested on: OVCAR-3
HCT-15 = tested on: HCT-15
HL-60 = tested on: HL-60
IGROV-1 = tested on: IGROV-1
SF-295 = tested on: SF-295
CAKI-1 = tested on: CAKI-1

Row | SMILES | GI50 (HCC 2998) | GI50 (T47D) | GI50 (ACHN) | GI50 (EKVX) | GI50 (HOP-62) | GI50 (UO-31) | GI50 (SF-268) | GI50 (MOLT-4) | GI50 (MDA-MB-435) | GI50 (A498) | GI50 (NCI-H23) | GI50 (786-0) | GI50 (NCI/ADR-RES) | GI50 (COLO 205) | GI50 (OVCAR-3) | GI50 (HCT-15) | GI50 (HL-60) | GI50 (IGROV-1) | GI50 (SF-295) | GI50 (CAKI-1)
1 | COc1cc(C(=O)NC2CCc3cc(OC)c(OC)c(OC)c3-c3ccc(OC)c(=O)cc32)cc(OC)c1OC (stereo not given) | 0.0776 µM (active) | 18.8 µM (inactive) | 2.65 µM (inactive) | 12 µM (inactive) | 0.471 µM (active) | 10.9 µM (inactive) | 0.0828 µM (active) | 0.0451 µM (active) | 0.0292 µM (active) | 0.274 µM (active) | 0.0809 µM (active) | 0.288 µM (active) | 18.2 µM (inactive) | 0.0585 µM (active) | 0.0372 µM (active) | 3.53 µM | 0.0259 µM (active) | 0.0891 µM (active) | 0.153 µM (active) | 1.15 µM (inactive)
2 | NC(=O)C(=CNC(N)=S)C(N)=O | > 100 µM (inactive) | > 100 µM (inactive) | > 100 µM (inactive) | > 100 µM (inactive) | > 100 µM (inactive) | 60 µM (inactive) | > 100 µM (inactive) | > 100 µM (inactive) | > 100 µM (inactive) | > 100 µM (inactive) | > 100 µM (inactive) | > 100 µM (inactive) | > 100 µM (inactive) | > 100 µM (inactive) | > 100 µM (inactive) | > 100 µM | > 100 µM (inactive) | > 100 µM (inactive) | > 100 µM (inactive) | > 100 µM (inactive)
3 | CC(=O)OC1=CC(n2cc(F)c(=O)[nH]c2=O)OC(C)C1=O (stereo not given) | 5.26 µM (inactive) | 16.7 µM (inactive) | 18.4 µM (inactive) | > 88.5 µM (inactive) | 23.7 µM (inactive) | 13.5 µM (inactive) | 81.5 µM (inactive) | 39.8 µM (inactive) | 11.4 µM (inactive) | 10.4 µM (inactive) | 19.1 µM (inactive) | 26.4 µM (inactive) | 40.2 µM (inactive) | 15.3 µM (inactive) | 25.3 µM (inactive) | 8.95 µM | 21.4 µM (inactive) | 30.5 µM (inactive) | 48.9 µM (inactive) | > 52.2 µM (inactive)
4 | ClCCCSSCCCCl | 36.1 µM (inactive) | > 100 µM (inactive) | 43.8 µM (inactive) | 74 µM (inactive) | 38.7 µM (inactive) | 30.7 µM (inactive) | 39.5 µM (inactive) | 2.06 µM (inactive) | 24.3 µM (inactive) | 38.7 µM (inactive) | 38.3 µM (inactive) | 30.2 µM (inactive) | 34.4 µM (inactive) | 32.1 µM (inactive) | 36.6 µM (inactive) | 22 µM | 3.86 µM (inactive) | 33 µM (inactive) | 37.5 µM (inactive) | 32.2 µM (inactive)
5 | COC(=O)C1Cc2ccc3c(c2C1=O)CCCC3 (stereo not given) | > 100 µM (inactive) | 23.2 µM (inactive) | > 100 µM (inactive) | 70.5 µM (inactive) | 89.7 µM (inactive) | 61.4 µM (inactive) | > 100 µM (inactive) | 21.3 µM (inactive) | > 100 µM (inactive) | > 100 µM (inactive) | 74.5 µM (inactive) | > 100 µM (inactive) | > 100 µM (inactive) | > 100 µM (inactive) | 80.7 µM (inactive) | 69.5 µM | > 100 µM (inactive) | > 100 µM (inactive) | 71.4 µM (inactive) | > 100 µM (inactive)
6 | Cc1ccc2c(c1)Sc1ccc(/N=N/N(C)C)cc1N2C | > 100 µM (inactive) | 31.7 µM (inactive) | > 100 µM (inactive) | > 100 µM (inactive) | > 100 µM (inactive) | > 100 µM (inactive) | > 100 µM (inactive) | 57.7 µM (inactive) | > 100 µM (inactive) | > 100 µM (inactive) | > 100 µM (inactive) | > 100 µM (inactive) | > 100 µM (inactive) | 78.9 µM (inactive) | 53.2 µM (inactive) | > 100 µM | 64.6 µM (inactive) | > 100 µM (inactive) | > 100 µM (inactive) | > 100 µM (inactive)
7 | COC(=O)C(=O)c1cc2ccccc2n1S(=O)(=O)c1ccccc1 | > 100 µM (inactive) | > 100 µM (inactive) | > 100 µM (inactive) | > 100 µM (inactive) | > 100 µM (inactive) | > 100 µM (inactive) | > 100 µM (inactive) | > 100 µM (inactive) | > 100 µM (inactive) | > 100 µM (inactive) | > 100 µM (inactive) | > 100 µM (inactive) | > 100 µM (inactive) | > 100 µM (inactive) | > 100 µM (inactive) | > 100 µM | > 100 µM (inactive) | > 100 µM (inactive) | > 100 µM (inactive) | > 100 µM (inactive)
